Read-outs that look alike come from different tables or passages of the source.

Test [1] deals with Hedgehog pathway activation (GLi-luciferase reporter) in Shh Light II reporter cells. Put plainly: Hedgehog pathway activation on Shh Light II reporter cells measured by luciferase activity. It is filed as cell-based. The settings on record: Mus musculus, Shh Light II. An outline of the steps: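 Shh Light II reporter cells carrying a hedgehog-responsive GLi-luciferase reporter were stimulated either with 500 nM SAG, a direct Smoothened agonist, or with conditioned media containing human Sonic Hedgehog (hShh). Test compounds were evaluated for blocking this pathway activation, quantified by luciferase activity. Cell viability was monitored in parallel with the Celltiter-Blue® assay.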

Test [2] concerns Hedgehog pathway activation on 10T1/2/Smo#3 cells (C3H10T1/2 cells transfected with human Smoothened receptor). Put plainly: Hedgehog pathway activation on 10T1/2/Smo#3 cells measured by ALP activity. It is filed as cell-based. Conditions: Mus musculus, C3H 10T1/2, 10T1/2/Smo#3 cells. The protocol: Hedgehog conditioned media was obtained by transfecting 293H cells with the full length gene encoding human Sonic Hedgehog (hShh) inserted into the pCMV6 expression vector, which contains a neomycin selectable marker and expresses the protein of interest with a C-terminal FLAG affinity tag. After selection in G418 containing media, conditioned media from Hedgehog expressing clones were tested for the ability to activate the hedgehog-responsive GLi-luciferase reporter in the Shh Light II cell line obtained by license from John Hopkins University (Taipale J, et al. Effects of oncogenic mutations in Smoothened and Patched can be reversed by cyclopamine. Nature 406: 1005-1009, 2000).
C3H10T1/2 cells were transfected with a pCMV expression vector containing the full length gene sequence encoding the human Smoothened receptor. Pooled cells, designated 10T1/2/Smo#3, growing in G418 selection media responded to activation by 10-20% conditioned hShh media with an approximate 5-10 fold increase in alkaline phosphaste (ALP) activity over untransfected parent C3H10T1/2 cells as measured by the conversion of the free acid of 4-methylumbelliferyl phosphate to a fluorescent product.
A test compound library was screened against hShh and 500 nM SAG (a direct agonist of the Smoothened receptor) activated 10T1/2/Smo#3 cells and Shh Light II reporter cells for the ability to block Hedgehog pathway activation. Concurrently, cell viability was measured by utilizing Celltiter-Blue® (Promega, Madison Wis.) viability assay. Active compounds were defined as those that inhibited Hedgehog signaling by greater than 50% with no concurrent loss in cell viability.
Their inhibitory activity against Hedgehog pathway activation on 10T1/2/Smo#3 cells as measured by ALP activity and Shh Light II reporter cells as measured by luciferase activity is shown in Table 1 below. In Table 1, +++ stands for an IC50 value that is less than 0.3 μM, ++ between 0.3 and 3 μM, + between 3 and 30 μM.
Additional data for compounds of the invention is shown below in Table 2. Their inhibitory activities against Hedgehog pathway activation are shown as IC50 values in μM on 10T1/2/Smo#3 cells as measured by ALP activity, or on Shh Light II reporter cells as measured by luciferase activity (hShh activation).

The mark [3] stands for this setting: hShh activation, read-out: Shh (IC50, inhibition of Hedgehog pathway activation).
The mark [4] stands for this setting: measured by ALP activity, read-out: ALP (IC50, inhibition of Hedgehog pathway activation).
[5] abbreviates: SAG activation (500 nM SAG), read-out: Shh Light II luciferase activity (SAG activation).
The mark [6] stands for this setting: hShh activation, read-out: Shh Light II luciferase activity (hShh activation).
[7] abbreviates: hShh activation, ALP activity, read-out: 10T1/2/Smo#3 ALP activity (hShh Activation).

As for `CC(C)(C)C(=O)Nc1cc(-c2cn3cc(-c4cc(C(F)(F)F)ccc4F)ccc3n2)ccc1C(F)(F)F` [Example 84, N-(5-(6-(2-fluoro-5-(trifluoromethyl)phenyl)imidazo[1,2-a]pyridin-2-yl)-2-(trifluoromethyl)phenyl)pivalamide], the IC50 in test [1] (setting [3]) turned out to be 1580 nM; in test [2] (setting [4]), 2490 nM.

In the case of `CC(C)(C)C(=O)Nc1cc(-c2cn3cc(Cl)ncc3n2)ccc1C(F)(F)F` [Example 85, N-(5-(6-chloroimidazo[1,2-a]pyrazin-2-yl)-2-(trifluoromethyl)phenyl)pivalamide], the figures for the IC50 in test [1] (setting [3]) and in test [2] (setting [4]) were 4390 nM and 1320 nM, respectively.

As for `CC(C)(C)C(=O)Nc1cc(-c2cn3cc(-c4ccccc4F)ncc3n2)ccc1C(F)(F)F` [Example 86, N-(5-(6-(2-fluorophenyl)imidazo[1,2-a]pyrazin-2-yl)-2-(trifluoromethyl)phenyl)pivalamide], the IC50 is 300 to 3000 nM in test [1] (setting [5]); 530 nM in test [1] (setting [3]); below 300 nM in test [1] (setting [6]); below 300 nM in test [2] (setting [7]); 547 nM in test [2] (setting [4]).

`Cc1ccc(-c2cn3cccnc3n2)cc1NC(=O)CC(C)(C)C` [Example 89, N-(5-(imidazo[1,2-a]pyrimidin-2-yl)-2-methylphenyl)-3,3-dimethylbutanamide]: the IC50 in test [1] (setting [5]), in test [1] (setting [6]) and in test [2] (setting [7]) was 3000 to 30000 nM throughout.

For the molecule `Cc1c(-c2cccc(NC(=O)C3CCCCC3)c2)nc2ncccn12` [Example 92, N-(3-(3-methylimidazo[1,2-a]pyrimidin-2-yl)phenyl)cyclohexanecarboxamide], the IC50 in test [1] (setting [5]), in test [1] (setting [6]) and in test [2] (setting [7]) was 3000 to 30000 nM each time.

In the case of `COc1ccc2nc(-c3ccc(C)c(NC(=O)C(C)(C)C)c3)cn2n1` [Example 94, N-(5-(6-methoxyimidazo[1,2-b]pyridazin-2-yl)-2-methylphenyl)pivalamide], the IC50 in test [1] (setting [3]) is 614 nM; in test [2] (setting [4]), 1520 nM.

On to `COc1ccc2nc(-c3ccc(C)c(NC(=O)c4ccccc4F)c3)cn2n1` [Example 96, 2-fluoro-N-(5-(6-methoxyimidazo[1,2-b]pyridazin-2-yl)-2-methylphenyl)benzamide], for which the IC50 in test [1] (setting [5]) was 300 to 3000 nM; in test [1] (setting [3]) it was 398 nM; in test [1] (setting [6]), 300 to 3000 nM; in test [2] (setting [7]), 300 to 3000 nM; in test [2] (setting [4]), 1090 nM.

With `COc1ccc2nc(-c3ccc(C)c(NC(=O)c4ccccc4)c3)cn2n1` [Example 97, N-(5-(6-methoxyimidazo[1,2-b]pyridazin-2-yl)-2-methylphenyl)benzamide], the IC50 in test [1] (setting [3]) is 679 nM; in test [2] (setting [4]), 1120 nM.

For the molecule `COc1ccc2nc(-c3ccc(C)c(NC(=O)c4ccc(F)cc4Cl)c3)cn2n1` [Example 98, 2-chloro-4-fluoro-N-(5-(6-methoxyimidazo[1,2-b]pyridazin-2-yl)-2-methylphenyl)benzamide], the IC50 in test [1] (setting [3]) was 1340 nM; in test [2] (setting [4]), 2040 nM.

For `COc1ccc2nc(-c3ccc(C)c(NC(=O)c4ccccc4C(F)(F)F)c3)cn2n1` [Example 99, N-(5-(6-methoxyimidazo[1,2-b]pyridazin-2-yl)-2-methylphenyl)-2-(trifluoromethyl)benzamide], the results for the IC50 in test [1] (setting [3]) and in test [2] (setting [4]) were above 10000 nM and 3690 nM, respectively.

Consider `COc1ccc2nc(-c3ccc(C)c(NC(=O)c4cccc(C(F)(F)F)c4)c3)cn2n1` [Example 100, N-(5-(6-methoxyimidazo[1,2-b]pyridazin-2-yl)-2-methylphenyl)-3-(trifluoromethyl)benzamide], for which the IC50 in test [1] (setting [3]) was determined as 1090 nM; in test [2] (setting [4]), 1060 nM.

As for `COc1ccc2nc(-c3ccc(C)c(NC(=O)Cc4ccc(Cl)cc4)c3)cn2n1` [Example 101, 2-(4-chlorophenyl)-N-(5-(6-methoxyimidazo[1,2-b]pyridazin-2-yl)-2-methylphenyl)acetamide], the IC50 in test [1] (setting [5]) was 3000 to 30000 nM; in test [1] (setting [3]), 890 nM; in test [1] (setting [6]), 300 to 3000 nM; in test [2] (setting [7]), 3000 to 30000 nM; in test [2] (setting [4]) it was 7010 nM.

Turning to `COc1ccc2nc(-c3ccc(C)c(NCc4ccc(F)cc4)c3)cn2n1` [Example 102, N-(4-fluorobenzyl)-5-(6-methoxyimidazo[1,2-b]pyridazin-2-yl)-2-methylaniline], the IC50 in test [1] (setting [3]) worked out at 9120 nM; in test [2] (setting [4]) it was 4210 nM.

For the molecule `COc1cc(CNc2cc(-c3cn4nc(OC)ccc4n3)ccc2C)cc(OC)c1` [Example 103, N-(3,5-dimethoxybenzyl)-5-(6-methoxyimidazo[1,2-b]pyridazin-2-yl)-2-methylaniline], the results for the IC50 in test [1] (setting [3]) and in test [2] (setting [4]) were above 10000 nM and 3930 nM, respectively.

On to `COc1cc(CN(Cc2cc(OC)cc(OC)c2)c2cc(-c3cn4nc(OC)ccc4n3)ccc2C)cc(OC)c1` [Example 104, N,N-bis(3,5-dimethoxybenzyl)-5-(6-methoxyimidazo[1,2-b]pyridazin-2-yl)-2-methylaniline], for which the IC50 in test [1] (setting [5]) was 3000 to 30000 nM; in test [1] (setting [3]) it was above 10000 nM; in test [1] (setting [6]), 3000 to 30000 nM; in test [2] (setting [7]), 3000 to 30000 nM; in test [2] (setting [4]), above 10000 nM.

As for `Cc1ccc(-c2cn3ncccc3n2)cc1NC(=O)C(C)(C)C` [Example 105, N-(5-(imidazo[1,2-b]pyridazin-2-yl)-2-methylphenyl)pivalamide], the IC50 in test [1] (setting [5]) is 3000 to 30000 nM; in test [1] (setting [3]), 1110 nM; in test [1] (setting [6]) it was 300 to 3000 nM; in test [2] (setting [7]), 300 to 3000 nM; in test [2] (setting [4]), 1810 nM.

On to `COc1ccc2nc(-c3cc(NC(=O)C(C)(C)C)c(C)cc3C)cn2n1` [Example 106, N-(5-(6-methoxyimidazo[1,2-b]pyridazin-2-yl)-2,4-dimethylphenyl)pivalamide], for which the IC50 in test [1] (setting [5]) is 300 to 3000 nM; in test [1] (setting [3]), 774 nM; in test [1] (setting [6]) it was 300 to 3000 nM; in test [2] (setting [7]), 300 to 3000 nM; in test [2] (setting [4]) it was 2500 nM.

On to `Cc1cc(C)c(-c2cn3ncccc3n2)cc1NC(=O)C(C)(C)C` [Example 107, N-(5-(imidazo[1,2-b]pyridazin-2-yl)-2,4-dimethylphenyl)pivalamide], for which the results for the IC50 in test [1] (setting [3]) and in test [2] (setting [4]) were 2770 nM and 7270 nM, respectively.

As for `Cc1ccc(-c2cn3ncccc3n2)cc1NC(=O)CC(C)(C)C` [Example 108, N-(5-(imidazo[1,2-b]pyridazin-2-yl)-2-methylphenyl)-3,3-dimethylbutanamide], the figures for the IC50 in test [1] (setting [3]) and in test [2] (setting [4]) were 2470 nM and 5230 nM, respectively.

Take `COc1ccc2nc(-c3ccc(C)c(NC(=O)C(C)(C)C)c3)c(Cl)n2n1` [Example 109, N-(5-(3-chloro-6-methoxyimidazo[1,2-b]pyridazin-2-yl)-2-methylphenyl)pivalamide]: the IC50 in test [1] (setting [5]) was 3000 to 30000 nM; in test [1] (setting [3]), 2650 nM; in test [1] (setting [6]), 300 to 3000 nM; in test [2] (setting [7]) it was 3000 to 30000 nM; in test [2] (setting [4]), 7000 nM.

For `COc1ccc2nc(-c3ccc(Cl)c(NC(=O)C(C)(C)C)c3)cn2n1` [Example 110, N-(2-chloro-5-(6-methoxyimidazo[1,2-b]pyridazin-2-yl)phenyl)pivalamide], the IC50 was above 10000 nM in test [1] (setting [3]) and 8040 nM in test [2] (setting [4]).

For the molecule `COc1ccc2nc(-c3ccc(Cl)c(NC(=O)CC(F)(F)F)c3)cn2n1` [Example 111, N-(2-chloro-5-(6-methoxyimidazo[1,2-b]pyridazin-2-yl)phenyl)-3,3,3-trifluoropropanamide], the IC50 in test [1] (setting [3]) is above 10000 nM; in test [2] (setting [4]), 9020 nM.

For the origin of these results see patent US8871767B2, “2-arylimidazo[1,2-B]pyridazine, 2-phenylimidazo[1,2-A]pyridine, and 2-phenylimidazo[1,2-A]pyrazine derivatives” (Hengrui (USA) Ltd., priority 2010, dated 2014).
